Measured values published in patent US6407130B1, “Carboxamide-substituted benzimidazoles having tryptase-inhibiting activity” (Boehringer Ingelheim Pharma KG, priority 1999, dated 2002).
Counter-ions that a name gives are not always drawn.

What was measured:
rh beta tryptase = molecular target: T1, rh beta tryptase (Homo sapiens, UniProt Q15661); test: tryptase inhibition test (cleavage of N-p-tosyl-Gly-Pro-Lys-para-nitroaniline, p-nitroaniline measured at 405 nm); assay type: biochemical; details: Tris HCl buffer pH 7.4 with calcium and heparin; substrate 0.6 mM; 5 minutes' pre-incubation, 5 minutes incubation at 37° C.
T1 construct: purchased Promega
T1 sequence (Q15661 31-275): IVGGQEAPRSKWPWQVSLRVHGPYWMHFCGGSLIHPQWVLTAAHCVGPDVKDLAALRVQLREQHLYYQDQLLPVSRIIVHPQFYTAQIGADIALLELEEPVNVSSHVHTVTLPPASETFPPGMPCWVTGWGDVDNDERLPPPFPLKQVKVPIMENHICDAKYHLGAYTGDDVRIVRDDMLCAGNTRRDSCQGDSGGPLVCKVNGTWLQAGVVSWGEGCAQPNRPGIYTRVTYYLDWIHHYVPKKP
Experimental: The compounds according to the invention are characterised by their tryptase-inhibiting activity. This ability to inhibit tryptase was investigated using the test described as follows. The measurement is carried out in Tris HCl buffer (100 mM), which additionally contains calcium (5 mM) and heparin ([…]), at pH 7.4. The standard used is rh beta tryptase which may be obtained commercially from Promega, for example. The substrate used is N-p-tosyl-Gly-Pro-Lys-para-nitroaniline in a concentration of 0.6 mM. The substrate is digested with tryptase to form p-nitroaniline which can be measured at 405 nm. Usually, an incubation period of 5 minutes and an incubation temperature of 37° C. are chosen. The enzyme activity used is 0.91 U/ml. The measurements are carried out in an Autoanalyser (Cobas Bio) made by Hofmann LaRoche. The potential inhibitory substances are used in concentrations of 10 μM in the screening, the inhibition of the tryptase being given in percent. The IC50 is determined at over 70% inhibition (concentration at which 50% of the enzyme activity is inhibited). After 5 minutes' pre-incubation of the potential inhibitory substances, the substrate is added to start the reaction, the formation of p-nitroaniline being taken as a measurement of the enzyme activity after 5 minutes, after testing the linearity.

| melting point | IC50 (rh beta tryptase) | Molecule |
| --- | --- | --- |
| > 260 °C | – | Cn1c(CCc2ccc(C(=N)N)cc2)nc2cc(NC(=O)C(N)Cc3ccc(C(=N)N)cc3)ccc21 (stereo not shown) (as salt: hydrochloride) [Example 4, N-{2-[2-(4-Amidinophenyl)-ethyl]-1-methyl-benzimidazol-5-yl}-[2-amino-3-(p-amidinophenyl)-propionic Acid Amide]-trihydrochloride] |
| > 220 °C | – | CC(C)CN(C(=O)CCc1ccc(C(=N)N)cc1)c1ccc2c(c1)nc(CCc1ccc(C(=N)N)cc1)n2C (as salt: hydrochloride) [Example 5, N-{2-[2-(4-Amidinophenyl)-ethyl]-1-methyl-benzimidazol-5-yl}-N-isobutyl-[3-(4-amidinophenyl)-propionamide]-dihydrochloride] |
| – | 28 nM | CN(CC(=O)N(Cc1cccc2ccccc12)c1ccc2c(c1)nc(CCc1ccc(C(=N)N)cc1)n2C)Cc1ccccc1 [Example 63, N-{2-[2-(4-Amidinophenyl)-ethyl]-1-methyl-benzimidazol-5-yl}-N-( - naphthylmethyl)-[2-(N-benzyl-N-methylamino)-acetamide]-dihydrochloride] |
| – | 25 nM | Cn1c(CCc2ccc(C(=N)N)cc2)nc2cc(N(Cc3cccc4ccccc34)C(=O)CCC3CCN(C(c4ccccc4)c4ccccc4)CC3)ccc21 [Example 64, N-{2-[2-(4-Amidinophenyl)-ethyl]-1-methyl-benzimidazol-5-yl}-N-( - naphthylmethyl)-[3-(1-diphenylmethyl-piperidin-4-yl)-propionamide]-trihydrochloride] |
| – | 27 nM | CCOC(=O)c1ccc(CNCC(=O)N(Cc2cccc3ccccc23)c2ccc3c(c2)nc(CCc2ccc(C(=N)N)cc2)n3C)cc1 [Example 65, N-{2-[2-(4-Amidinophenyl)-ethyl]-1-methyl-benzimidazol-5-yl}-N-( - naphthylmethyl)-[2-(4-ethylcarboxylatbenzylamino)-acetamide]-dihydrochloride] |
| – | 27 nM | CCN(CC)CC(=O)N(Cc1cccc2ccccc12)c1ccc2c(c1)nc(CCc1ccc(C(=N)N)cc1)n2C [Example 66, N-{2-[2-(4-Amidinophenyl)-ethyl]-1-methyl-benzimidazol-5-yl}-N-( - naphthylmethyl)-[2-diethylaminoacetamide]-dihydrochloride] |
| – | 39 nM | Cn1c(CCc2ccc(C(=N)N)cc2)nc2cc(N(Cc3cccc4ccccc34)C(=O)C=Cc3ccccn3)ccc21 [Example 67, N-{2-[2-(4-Amidinophenyl)-ethyl]-1-methyl-benzimidazol-5-yl}-N-( - naphthylmethyl)-[3-(pyridin-2-yl)-acrylamide]-hydrochloride] |
| – | 38 nM | Cn1c(CCc2ccc(C(=N)N)cc2)nc2cc(N(Cc3cccc4ccccc34)C(=O)CCc3ccccn3)ccc21 [Example 68, N-{2-[2-(4-Amidinophenyl)-ethyl]-1-methyl-benzimidazol-5-yl}-N-( - naphthylmethyl)-[3-(pyridin-2-yl)-propionamide]-hydrochloride] |
| – | 18 nM | Cn1c(CCc2ccc(C(=N)N)cc2)nc2cc(N(Cc3cccc4ccccc34)C(=O)CN3CCC(O)(Cc4ccccc4)CC3)ccc21 [Example 69, N-{2-[2-(4-Amidinophenyl)-ethyl]-1-methyl-benzimidazol-5-yl}-N-( - naphthylmethyl)-[2-(4-benzyl-4-hydroxypiperidin-1-yl)-acetamide]-dihydrochloride] |
| – | 3.9 nM | Cn1c(CCc2ccc(C(=N)N)cc2)nc2cc(N(Cc3cccc4ccccc34)C(=O)CN3CCC(Cc4ccccc4)CC3)ccc21 [Example 70, N-{2-[2-(4-Amidinophenyl)-ethyl]-1-methyl-benzimidazol-5-yl}-N-( - naphthylmethyl)-[2-(4-benzyl-4-piperidin-1-yl)-acetamide]-dihydro-chloride] |
| – | 15.9 nM | CCOC(=O)C1CCN(CC(=O)N(Cc2cccc3ccccc23)c2ccc3c(c2)nc(CCc2ccc(C(=N)N)cc2)n3C)CC1 [Example 71, N-{2-[2-(4-Amidinophenyl)-ethyl]-1-methyl-benzimidazol-5-yl}-N-( - naphthylmethyl)-[2-(4-ethylcarboxylate-4-piperidin-1-yl)-acetamide]-dihydrochloride] |
| – | 58.4 nM | Cn1c(CCc2ccc(C(=N)N)cc2)nc2cc(N(Cc3cccc4ccccc34)C(=O)CN3CCC[C@H]3C(N)=O)ccc21 [Example 72] |
| – | 13.1 nM | Cn1c(CCc2ccc(C(=N)N)cc2)nc2cc(N(Cc3ccc(N)cc3)C(=O)CNCc3ccc(N)cc3)ccc21 [Example 73, N-{2-[2-(4-Amidinophenyl)-ethyl]-1-methyl-benzimidazol-5-yl}-N-(4-aminobenzyl)-[2-(4-aminobenzylamino)-acetamide]-dihydrochloride] |
| – | 57.4 nM | Cn1c(CCc2ccc(C(=N)N)cc2)nc2cc(N(Cc3ccncc3)C(=O)CNCc3ccc(N)cc3)ccc21 [Example 74, N-{2-[2-(4-Amidinophenyl)-ethyl]-1-methyl-benzimidazol-5-yl}-N-(-pyridin-4-ylmethyl)-[2-(4-aminobenzylamino)-acetamide]-dihydrochloride] |
| – | 17.2 nM | Cn1c(CCc2ccc(C(=N)N)cc2)nc2cc(N(Cc3cccc4ccccc34)C(=O)COCc3ccc([N+](=O)[O-])cc3)ccc21 [Example 75, N-{2-[2-(4-Amidinophenyl)-ethyl]-1-methyl-benzimidazol-5-yl}-N-(-- naphthylmethyl)-[2-(4-nitrobenzyloxy)-acetamide]-hydrochloride] |
| – | 22 nM | CN(C)CCNCC(=O)N(Cc1cccc2ccccc12)c1ccc2c(c1)nc(CCc1ccc(C(=N)N)cc1)n2C [Example 76] |
| – | 110 nM | Cn1c(CCc2ccc(C(=N)N)cc2)nc2cc(N(Cc3cccc4ccccc34)C(=O)CO)ccc21 [Example 77, N-{2-[2-(4-Amidinophenyl)-ethyl]-1-methyl-benzimidazol-5-yl}-N-(- naphthylmethyl)-[3-hydroxy-acetamide]-hydrochloride] |
| – | 21.3 nM | CN(C)CCCNCC(=O)N(Cc1cccc2ccccc12)c1ccc2c(c1)nc(CCc1ccc(C(=N)N)cc1)n2C [Example 78, N-{2-[2-(4-Amidinophenyl)-ethyl]-1-methyl-benzimidazol-5-yl}-N-(α-naphthylmethyl)-[2-(N-(3-dimethylaminopropyl)-amino)-acetamide]-trihydrochloride] |
| – | 30.1 nM | Cn1c(CCc2ccc(C(=N)N)cc2)nc2cc(N(Cc3cccc4ccccc34)C(=O)Cc3cccc4ccccc34)ccc21 [Example 80, N-{2-[2-(4-Amidinophenyl)-ethyl]-1-methyl-benzimidazol-5-yl}-N-( - naphthylmethyl)-[2-( -naphthyl)-acetamide]-hydrochloride] |
| – | 63.1 nM | Cn1c(CCc2ccc(C(=N)N)cc2)nc2cc(N(Cc3cccc4ccccc34)C(=O)CN3CCCCC3)ccc21 [Example 81, N-{2-[2-(4-Amidinophenyl)-ethyl]-1-methyl-benzimidazol-5-yl}-N-( - naphthylmethyl)-[2-(piperidin-1-yl)-acetamide]-dihydrochloride] |
| – | 4.9 nM | Cn1c(CCc2ccc(C(=N)N)cc2)nc2cc(N(Cc3cccc4ccccc34)C(=O)CNCc3ccc(N4CCCC4)cc3)ccc21 [Example 82, N-{2-[2-(4-Amidinophenyl)-ethyl]-1-methyl-benzimidazol-5-yl}-N-( - naphthylmethyl)-[2-(N-4-pyrrolidin-1-ylbenzylamino)-acetamide]-dihydrochloride] |
| – | 7.6 nM | CN(CC(=O)N(Cc1cccc2ccccc12)c1ccc2c(c1)nc(CCc1ccc(C(=N)N)cc1)n2C)Cc1ccc(N2CCCC2)cc1 [Example 83, N-{2-[2-(4-Amidinophenyl)-ethyl]-1-methyl-benzimidazol-5-yl}-N-( - naphthylmethyl)-[2-(N-(4-pyrrolidin-1-ylbenzyl)-N-methylamino)-acetamide]-dihydrochloride] |

| Molecule | melting point | IC50 (rh beta tryptase) |
| --- | --- | --- |
| N-{2-[2-(4-Amidinophenyl)-ethyl]-1- methyl-benzimidazol-5-yl}-N-( - naphthyl)-[4- dimethylaminobenzylamino- acetamide]-dihydrochloride [Example 21] | – | 11 nM |
| N-{2-[2-(4-Amidinophenyl)-ethyl]-1- methyl-benzimidazol-5-yl}-N-( - naphthylmethyl)-[2-(1-pyridin-2-yl- piperazin-4-yl)-acetamide]-trihydro- chloride [Example 79] | – | 20.1 nM |
| N-{2-[2-(4-Amidinophenyl)-ethyl]-1- methyl-benzimidazol-5-yl}-N-( - naphthylmethylamino)-[2-(4- trifluoromethylbenzylamino)- acetamide]-dihydrochloride [Example 44] | – | 31 nM |
